Where a name gives a salt, the structure may show the parent alone.
Assays:
[1] = target: T1, human PDE4D (Homo sapiens, UniProt Q08499); assay: PDE4 isoenzyme inhibition assay (SPA), PDE4D; format: biochemical; conditions: [3H]-cAMP, 1 μM cAMP, 30-60 minutes at room temperature, 1% DMSO
T1 construct: PDE4 cDNA constructs containing the coding regions of the three isoenzymes; made in house; host or cells: Sf21 insect cells (baculovirus, Bac-To-Bac)
Description: PDE4 Isoenzyme Inhibition Assay
Cloning: GATEWAY flanked PDE4 cDNA constructs containing the coding regions of the three isoenzymes, human PDE4A, human PDE4B, and human PDE4D are generated by PCR and transposed into the GATEWAY shuttle vector pDONOR-201. In addition a 6-histidine tag is introduced by PCR onto the carboxyl terminal end of each of the constructs to facilitate protein purification. Following sequence verification, the PDE4 constructs are transposed into the GATEWAY expression vector pDEST-8, Positive recombinants are selected and transposed into E. coli strain DH10Bac and bacmid produced transfected into SF21 cells using Bac-To-Bac (Invitrogen Life Technologies). Positive transfections are selected and used to generate high titer viral stocks for use in protein expression.
PDE4 Expression: Sf21 cells are grown to a density of 2×10^6 cells/ml and infected with human PDE4A, PDE4B or PDE4D3 containing baculovirus to a multiplicity of infection (m.o.i.) of 1 for 72 hours. The infected cells are harvested by centrifugation at 1,400 g for 4 minutes at 4° C. and the cell pellets are frozen at −80° C. Sf21 (Spodoptera frugiperda 21) insect cells are routinely maintained at densities between […] and 3×10^6 cells/ml in SF00 Serum Free Medium (Invitorgen Life Technologies). Sf21 cells ([…]) are resuspended in 100 ml cold (4° C.) Lysis Buffer (50 mM Na2HPO4, 200 mM NaCl, 10 mM Imidazole). Cells are incubated on ice for 30 minutes then centrifuged at 15,000 g for 20 minutes at 4° C.
PDE4 Purification: The 6 Histidine-tagged PDE4 proteins are isolated from crude cell lysates by a batch-wise Ni-NTA purification strategy (QIAGEN). N-NTA resin is first pre-rinsed to remove ethanol preservative and equilibrated with Lysis Buffer. Cell lysate is added, (10 ml 50% Ni-NTA slurry resin per 50 ml lysate), and gently rotated on a mixer at 4° C. for 1-2 hours. The sample is then centrifuged at 1,000 g for 5 minutes at 4° C. using Denley benchtop centrifuge. The supernatant is removed and the resin is washed 3 times with 50 ml ice cold Wash Buffer (50 mM Na2HPO4, 300 mM NaCl and 20 mM imidazole) followed by centrifugation at 1,000 g for 5 min at 4° C. The 6His-tagged protein is eluted from the resin with 3×5 ml ice cold Elution Buffer (50 mM NaH2PO4, 300 mM NaCl, 250 mM imidazole) and collected by centrifugation at 1,000 g for 5 minutes at 4° C. The supernatants are then pooled before buffer exchange and concentration using a VivaScience 20 ml SK 0.2 μM Concentrator. Samples are aliquoted and stored at −20° C.
PDE4 Assay: The assay is based on Amersham Pharmacia Biotech Scintillation Proximity Assay (SPA) technology. Enzyme is diluted with enzyme dilution buffer (10 mM Tris-HCl, pH7.5 containing 1 mM EDTA) in order to obtain between 10-30% total substrate hydrolysis during the assay. The enzymatic reaction is started by adding 10 μl diluted enzyme to 80 μl substrate (0.1 μCi [3H]-cAMP, 1 μM cAMP) and 10 μl inhibitor solution in a 96-well microtiter plate. After 30-60 minutes incubation at room temperature the reaction is stopped by adding 50 μl PDE SPA beads (20 mg/ml). After 30 minutes the plate is centrifuged (3000 g, 10 minutes) and counted (Packard TopCount).
Inhibitor stock solutions are prepared in 100% dimethylsulphoxide (DMSO) and diluted with DMSO/water to achieve 10 concentrations to cover the range of 0-100% inhibition. The concentration of DMSO is kept constant at 1% (v/v) throughout the assay.
The concentration at which 50% inhibition occurs (IC50) is determined from inhibition—concentration curves in a conventional manner.

T1 sequence (Q08499 1-673 isoform Q08499-2): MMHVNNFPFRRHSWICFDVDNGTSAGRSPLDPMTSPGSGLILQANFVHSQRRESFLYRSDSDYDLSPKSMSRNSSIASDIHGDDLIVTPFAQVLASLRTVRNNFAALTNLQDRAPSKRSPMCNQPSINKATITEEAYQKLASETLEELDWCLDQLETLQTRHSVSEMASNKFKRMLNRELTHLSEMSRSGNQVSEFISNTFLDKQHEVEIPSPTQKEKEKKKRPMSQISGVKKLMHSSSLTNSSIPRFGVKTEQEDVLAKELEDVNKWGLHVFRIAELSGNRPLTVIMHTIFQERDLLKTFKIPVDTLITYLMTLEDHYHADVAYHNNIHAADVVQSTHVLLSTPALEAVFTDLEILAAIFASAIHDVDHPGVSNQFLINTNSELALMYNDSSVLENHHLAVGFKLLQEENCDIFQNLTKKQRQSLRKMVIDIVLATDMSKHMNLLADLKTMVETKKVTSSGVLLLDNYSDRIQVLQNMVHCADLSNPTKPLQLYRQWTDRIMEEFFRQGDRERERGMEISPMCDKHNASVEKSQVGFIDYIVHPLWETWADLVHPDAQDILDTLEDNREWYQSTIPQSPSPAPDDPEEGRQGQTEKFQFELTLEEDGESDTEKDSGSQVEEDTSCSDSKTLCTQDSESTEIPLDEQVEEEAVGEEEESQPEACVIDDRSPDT

melting point [°C]	IC50 [1] [nM]	Structure (SMILES)
> 250	–	N#Cc1cccc(-c2nc(C3CCC(C(=O)O)CC3)cc3cccnc23)c1 (stereo not drawn) (as salt: potassium) [Example 3, 4-[8-(3-Cyano-phenyl)-[1,7]naphthyridin-6-yl]-cyclohexanecarboxylic acid]
–	38	CCOC(=O)C1CCC(c2cc3cccnc3c(-c3cccc(C#N)c3)n2)CC1 (stereo not drawn) [Example 1, 4[8-(3-Cyano-phenyl)-[1,7]naphthyridin-6-yl]-cyclohexanecarboxylic acid ethyl ester]
–	9	N#Cc1cccc(-c2nc(C3CCC(C(=O)O)CC3)cc3cccnc23)c1 (stereo not drawn) [Example 3, 4-[8-(3-Cyano-phenyl)-[1,7]naphthyridin-6-yl]-cyclohexanecarboxylic acid]
209 to 212	25	COc1cccc(-c2nc(C3CCC(C(=O)O)CC3)cc3cccnc23)c1 (stereo not drawn) [Example 10, 4-[8-(3-Methoxy-phenyl)-[1,7]naphthyridin-6-yl]-cyclohexanecarboxylic acid]
–	21	O=C(O)C1CCC(c2cc3cccnc3c(-c3cccc(F)c3)n2)CC1 (stereo not drawn) [Example 12, 4-[8-(3-Fluorophenyl)-[1,7]naphthyridin-6-yl]-cyclohexanecarboxylic acid]
–	57	O=C(O)C1CCC(c2cc3cccnc3c(-c3cccc(OC(F)(F)F)c3)n2)CC1 (stereo not drawn) [Example 14, 4-[8-(3-Trifluoromethoxyphenyl)-[1,7]naphthyridin-6-yl]-cyclohexanecarboxylic acid]
177.6 to 178.2	9	CSc1cccc(-c2nc(C3CCC(C(=O)O)CC3)cc3cccnc23)c1 (stereo not drawn) [Example 15, 4-[8-(3-Methylsulfanyl-phenyl)-[1,7]naphthyridin-6-yl]-cyclohexanecarboxylic acid]
